According to the NIST ThermoML archive (doi:10.1016/j.jct.2005.04.010):
± gives the expanded uncertainty stated by the source.

Assays:
[1] = 101.33 kPa, Liquid
[2] = wn = mass fraction of the nth substance listed; settings: 101 kPa, Liquid, w1 = 0.5

CCCCCC[n+]1ccn(C)c1.O=S(=O)([N-]S(=O)(=O)C(F)(F)F)C(F)(F)F
[1]
Settings	mass density [kg/m3]
293.15 K	1374 ± 5
298.15 K	1370 ± 5
303.15 K	1365 ± 5
308.15 K	1361 ± 5
313.15 K	1356 ± 5
318.15 K	1352 ± 5
323.15 K	1347 ± 5
328.15 K	1343 ± 5
333.15 K	1339 ± 5
338.15 K	1334 ± 5
343.15 K	1330 ± 5
348.15 K	1325 ± 5
353.15 K	1320 ± 5
358.15 K	1315 ± 5

CCn1cc[n+](C)c1.O=S(=O)([N-]S(=O)(=O)C(F)(F)F)C(F)(F)F + CCCC[n+]1ccn(C)c1.O=S(=O)([N-]S(=O)(=O)C(F)(F)F)C(F)(F)F
[2]
Settings	mass density [kg/m3]
293.15 K	1483 ± 6
298.15 K	1479 ± 6
303.15 K	1474 ± 6
308.15 K	1469 ± 6
313.15 K	1464 ± 6
318.15 K	1459 ± 6
323.15 K	1454 ± 6
328.15 K	1449 ± 6
333.15 K	1445 ± 6
338.15 K	1440 ± 6
343.15 K	1435 ± 6
348.15 K	1430 ± 6
353.15 K	1425 ± 6
358.15 K	1421 ± 6
